In patent US7741281B2, “Hepatitis C virus inhibitors” (Bristol-Myers Squibb Company, priority 2005, dated 2010):
pEC50, pIC50: −log10 of the molar value.

Tests used:
[1] = biological target: T1, HCV NS3/4A protease complex, BMS strain (UniProt P27958, species not given/STRAIN_BMS); assay: FRET peptide assay to monitor HCV NS3/4A proteolytic activity (BMS strain); format: biochemical, HCV genotype 1a; settings: NS3/4A BMS strain; read-out: IC50 Activity Range
T1 construct: for H77 and J4L6S; fused on or other part: Three-lysine solubilizing tail at the end of NS4A, for the H77 and J4L6S constructs; Purification on Ni-NTA and the pET21b vector imply a His tag
Text: HCV NS3 protease complexes, derived from the BMS strain, H77 strain or J4L6S strain, were generated, as described below. These purified recombinant proteins were generated for use in a homogeneous assay (see below) to provide an indication of how effective compounds of the present disclosure would be in inhibiting HCV NS3 proteolytic activity.
Serum from an HCV-infected patient was obtained from Dr. T. Wright, San Francisco Hospital. An engineered full-length cDNA (compliment deoxyribonucleic acid) template of the HCV genome (BMS strain) was constructed from DNA fragments obtained by reverse transcription-PCR (RT-PCR) of serum RNA (ribonucleic acid) and using primers selected on the basis of homology between other genotype 1a strains. From the determination of the entire genome sequence, a genotype 1a was assigned to the HCV isolate according to the classification of Simmonds et al. (See P Simmonds, K A Rose, S Graham, S W Chan, F McOmish, B C Dow, E A Follett, P L Yap and H Marsden, J. Clin. Microbiol., 31(6), 1493-1503 (1993)). […] The infectious clones, H77 (1a genotype) and J4L6S (1b genotype) were obtained from R. Purcell (NIH) and the sequences are published in Genbank (AAB67036, see Yanagi, M., Purcell, R. H., Emerson, S. U. and Bukh, J. Proc. Natl. Acad. Sci. U.S.A. 94(16), 8738-8743 (1997); AF054247, see Yanagi, M., St Claire, M., Shapiro, M., Emerson, S. U., Purcell, R. H. and Bukh, J, Virology 244 (1), 161-172. (1998)).
The H77 and J4L6S strains were used for production of recombinant NS3/4A protease complexes. DNA encoding the recombinant HCV NS3/4A protease complex (amino acids 1027 to 1711) for these strains were manipulated as described by P. Gallinari et al. (see Gallinari P, Paolini C, Brennan D, Nardi C, Steinkuhler C, De Francesco R. Biochemistry. 38(17):5620-32, (1999)). Briefly, a three-lysine solubilizing tail was added at the 3′-end of the NS4A coding region. The cysteine in the P1 position of the NS4A-NS4B cleavage site (amino acid 1711) was changed to a glycine to avoid the proteolytic cleavage of the lysine tag. Furthermore, a cysteine to serine mutation was introduced by PCR at amino acid position 1454 to prevent the autolytic cleavage in the NS3 helicase domain. The variant DNA fragment was cloned in the pET21b bacterial expression vector (Novagen) and the NS3/4A complex was expressed in Escherichia. coli strain BL21 (DE3) (Invitrogen) following the protocol described by P. Gallinari et al. (see Gallinari P, Brennan D, Nardi C, Brunetti M, Tomei L, Steinkuhler C, De Francesco R., J Virol. 72(8):6758-69 (1998)) with modifications. Briefly, the NS3/4A protease complex expression was induced with 0.5 millimolar (mM) Isopropyl β-D-1-thiogalactopyranoside (IPTG) for 22 hours (h) at 20° C. A typical fermentation (1 Liter (L)) yielded approximately 10 grams (g) of wet cell paste. The cells were resuspended in lysis buffer (10 mL/g) consisting of 25 mM N-(2-Hydroxyethyl)Piperazine-N′-(2-Ethane Sulfonic acid) (HEPES), pH 7.5, 20% glycerol, 500 mM Sodium Chloride (NaCl), 0.5% Triton X-100, 1 microgram/milliliter (“μg/mL”) lysozyme, 5 mM Magnesium Chloride (MgCl2), 1 μg/ml DnaseI, 5 mM β-Mercaptoethanol (βME), Protease inhibitor-Ethylenediamine Tetraacetic acid (EDTA) free (Roche), homogenized and incubated for 20 minutes (min) at 4° C. The homogenate was sonicated and clarified by ultra-centrifugation at 235000 g for 1 h at 4° C. Imidazole was added to the supernatant to a final concentration of 15 mM and the pH adjusted to 8.0. The crude protein extract was loaded on a Nickel-Nitrilotriacetic acid (Ni-NTA) column pre-equilibrated with buffer B (25 mM HEPES, pH 8.0, 20% glycerol, 500 mM NaCl, 0.5% Triton X-100, 15 mM imidazole, 5 mM βME). The sample was loaded at a flow rate of 1 mL/min. The column was washed with 15 column volumes of buffer C (same as buffer B except with 0.2% Triton X-100). The protein was eluted with 5 column volumes of buffer D (same as buffer C except with 200 mM Imidazole). […]

[2] = test system: HCV replicon in HUH-7 cells; assay: HCV replicon FRET assay; format: cell-based, HCV strain 1b; settings: Hepatitis C virus, Huh-7; HCV replicon; read-out: EC50 Activity Range
Text: An HCV replicon whole cell system was established as described by Lohmann V, Korner F, Koch J, Herian U, Theilmann L, Bartenschlager R., Science 285(5424):110-3 (1999). This system enabled us to evaluate the effects of our HCV Protease compounds on HCV RNA replication. Briefly, using the HCV strain 1b sequence described in the Lohmann paper (Assession number: AJ238799), an HCV cDNA was synthesized by Operon Technologies, Inc. (Alameda, Calif.), and the full-length replicon was then assembled in plasmid pGem9zf(+) (Promega, Madison, Wis.) using standard molecular biology techniques. The replicon consists of (i) the HCV 5′ UTR fused to the first 12 amino acids of the capsid protein, (ii) the neomycin phosphotransferase gene (neo), (iii) the IRES from encephalomyocarditis virus (EMCV), and (iv) HCV NS3 to NS5B genes and the HCV 3′ UTR. Plasmid DNAs were linearized with ScaI and RNA transcripts were synthesized in vitro using the T7 MegaScript transcription kit (Ambion, Austin, Tex.) according to manufacturer's directions. In vitro transcripts of the cDNA were transfected into the human hepatoma cell line, HUH-7. […] Resulting cell lines were characterized for positive and negative strand RNA production and protein production over time.
The HCV replicon FRET assay was developed to monitor the inhibitory effects of compounds described in the disclosure on HCV viral replication. HUH-7 cells, constitutively expressing the HCV replicon, were grown in Dulbecco's Modified Eagle Media (DMEM) (Gibco-BRL) containing 10% Fetal calf serum (FCS) (Sigma) and 1 mg/ml G418 (Gibco-BRL). Cells were seeded the night before (1.5×10^4 cells/well) in 96-well tissue-culture sterile plates. Compound and no compound controls were prepared in DMEM containing 4% FCS, 1:100 Penicillin/Streptomysin (Gibco-BRL), 1:100 L-glutamine and 5% DMSO in the dilution plate (0.5% DMSO final concentration in the assay). Compound/DMSO mixes were added to the cells and incubated for 4 days at 37° C. After 4 days, cells were first assessed for cytotoxicity using alamar Blue (Trek Diagnotstic Systems) for a CC50 reading. The toxicity of compound (CC50) was determined by adding 1/10th volume of alamar Blue to the media incubating the cells. After 4 hours, the fluorescence signal from each well was read, with an excitation wavelength at 530 nm and an emission wavelength of 580 nm, using the Cytofluor Series 4000 (Perspective Biosystems). Plates were then rinsed thoroughly with Phosphate-Buffered Saline (PBS) (3 times 150 μl). The cells were lysed with 25 μl of a lysis assay reagent containing an HCV protease substrate (5× cell Luciferase cell culture lysis reagent (Promega #El 53A) diluted to 1× with distilled water, NaCl added to 150 mM final, the FRET peptide substrate (as described for the enzyme assay above) diluted to 10 μM final from a 2 mM stock in 100% DMSO. […]. The plate was then placed into the Cytofluor 4000 instrument which had been set to 340 nm excitation/490 nm emission, automatic mode for 21 cycles and the plate read in a kinetic mode. EC50 determinations were carried out as described for the IC50 determinations.

T1 sequence (P27958 1027-1657, change not shown, one chain of several): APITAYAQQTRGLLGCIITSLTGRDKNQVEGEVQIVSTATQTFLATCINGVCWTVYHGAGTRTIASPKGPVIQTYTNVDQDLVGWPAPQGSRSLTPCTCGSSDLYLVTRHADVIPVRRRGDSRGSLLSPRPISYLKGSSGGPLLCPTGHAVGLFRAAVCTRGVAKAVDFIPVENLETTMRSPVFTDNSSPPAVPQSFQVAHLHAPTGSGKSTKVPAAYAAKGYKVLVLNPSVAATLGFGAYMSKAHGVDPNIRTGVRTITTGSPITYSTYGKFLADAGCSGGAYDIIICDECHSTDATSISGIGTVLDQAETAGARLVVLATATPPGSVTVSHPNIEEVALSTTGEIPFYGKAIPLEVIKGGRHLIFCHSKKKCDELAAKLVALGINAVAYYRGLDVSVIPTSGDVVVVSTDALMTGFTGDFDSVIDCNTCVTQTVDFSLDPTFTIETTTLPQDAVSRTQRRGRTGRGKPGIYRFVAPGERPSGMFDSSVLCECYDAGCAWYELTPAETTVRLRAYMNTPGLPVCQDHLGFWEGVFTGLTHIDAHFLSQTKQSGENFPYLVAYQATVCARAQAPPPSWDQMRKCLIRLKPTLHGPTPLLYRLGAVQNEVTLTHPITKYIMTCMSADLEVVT

| SMILES | pIC50 [1] | pEC50 [2] | melting point |
| --- | --- | --- | --- |
| CC(C)(C)OC(=O)N[C@H]1CCCOC/C=C\[C@@H]2C[C@@]2(C(=O)NS(=O)(=O)C2CC2)NC(=O)[C@@H]2C[C@@H](OC(C)(C)C)CN2C1=O [Compound 6, (1S,4R,6S,14S,18R,7-cis)-18-tert-butoxy-14-tert-butoxycarbonylamino-4-cyclopropanesulfonylaminocarbonyl-2,15-dioxo-3,16-diaza-10-oxatricyclo[14.3.0.0^4,6]nonadec-7-ene] | 6.00 to 7.00 | < 6.00 | – |
| CC(C)(C)OC(=O)N[C@H]1CCCCC/C=C\[C@@H]2C[C@@]2(C(=O)NS(=O)(=O)C2CC2)NC(=O)[C@@H]2C[C@@H](Oc3ccccn3)CN2C1=O [Compound 1] | > 7.00 | 6.00 to 7.00 | – |
| CC(C)(C)OC(=O)N[C@H]1CCCCC/C=C\[C@@H]2C[C@@]2(C(=O)NS(=O)(=O)C2CC2)NC(=O)[C@@H]2C[C@@H](Oc3ccc([N+](=O)[O-])cc3)CN2C1=O [Compound 2] | > 7.00 | < 6.00 | – |
| CC(C)(C)OC(=O)N[C@H]1CCCOC/C=C\[C@@H]2C[C@@]2(C(=O)NS(=O)(=O)C2CC2)NC(=O)[C@@H]2C[C@@H](OCc3ccccc3)CN2C1=O [Compound 5, (1S,4R,6S,14S,18R,7-cis)-18-benzyloxy-14-tert-butoxycarbonylamino-4-cyclopropanesulfonylaminocarbonyl-2,15-dioxo-3,16-diaza-10-oxatricyclo[14.3.0.0^4,6]nonadec-7-ene] | > 7.00 | < 6.00 | 147 to 149 °C |
